Assay results from patent publication US9155795B2, “CXCR4 receptor compounds” (Anchor Therapeutics, Inc., priority 2010, dated 2015).
Where a SMILES comes first, the peptide text is derived from it. [ ]: non-standard residue; d: D form. The star is where a group is joined. Palmitoyl = CCCCCCCCCCCCCCCC(=O)*; Hyp = O=C(O)[C@@H]1C[C@@H](O)CN1; X1 = CCCCCCCCCCCCOCCC(=O)*; hSer = N[C@@H](CCO)C(=O)O; Pra = C#CC[C@H](N)C(=O)O; Dap = NC[C@H](N)C(=O)O

Target: T1, CXCR4 (Homo sapiens, UniProt P61073)
T1 construct: CCRF-CEM cells, a human T-cell ALL line that endogenously expresses CXCR4; endogenous in cells; host or cells: CCRF-CEM (human T-cell acute lymphoblastic leukemia line)
T1 sequence (P61073 whole entry): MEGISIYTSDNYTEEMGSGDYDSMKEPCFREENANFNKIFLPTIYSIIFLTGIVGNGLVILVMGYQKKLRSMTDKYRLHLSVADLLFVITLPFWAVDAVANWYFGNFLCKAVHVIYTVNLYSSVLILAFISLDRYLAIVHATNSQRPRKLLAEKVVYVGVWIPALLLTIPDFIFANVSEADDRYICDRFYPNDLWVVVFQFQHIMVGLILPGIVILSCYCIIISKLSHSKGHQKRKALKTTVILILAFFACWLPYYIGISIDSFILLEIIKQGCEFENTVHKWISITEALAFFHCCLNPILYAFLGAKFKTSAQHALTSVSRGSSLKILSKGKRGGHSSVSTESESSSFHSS
Assay: Calcium flux assay, agonist mode, Flexstation (CCRF-CEM cells)
Type: cell-based
Conditions: CCRF-CEM, percent of maximum response compared with SDF-1α, read-out: % Intrinsic Activity
Text: Calcium Flux Assay is one of the most popular cell-based GPCR functional assays. It most often uses calcium sensing fluorescent dyes such as fura2 AM, fluo-4 and Calcium-4 to measure changes in intracellular calcium concentration. It is used mainly to detect GPCR signaling via Gαq subunit. Activation of these Gq-coupled GPCRs leads to activation of phospholipase C, which subsequently leads to increase in inositol phosphate production. IP3 receptors on endoplasmic reticulum sense the change then release calcium into cytoplasm. Intracellular calcium binding to the fluorescent dyes can be detected by instruments that quantify fluorescent intensities, such as FLIPR Tetra, Flexstation (MDS) and FDSS (Hamamatsu). In addition, to assess Gq-couple receptor signaling, a calcium flux assay can also be used to study Gs and Gi couple receptors by co-expressing CNG (cyclic nucleotide gated calcium channel) or chimeric G-proteins (Gqi5, Gsi5 for example). Activation of some Gi-coupled receptors can also be detected by calcium flux assay via Gβγ mediated phospholipase C activation.
The calcium flux assay was used to assess the test compounds' ability to activate the CXCR4 receptor in CCRF-CEM cells (human T lymphoblasts from acute lymphoblastic leukemia). […] After dye loading by incubating with Calcium-4 dye at 37° C. for 1 hour, cell plates were read at 37° C. using the using the Flexstation 3 workstation. Receptor activation was assessed by measuring changes in fluorescent intensity after the addition of the test compounds or the reference agonist SDF-1α on the using the Flexstation 3 workstation. EC50
and percent intrinsic actively were derived from the data collected. Intrinsic activity refers to the efficacy of the test compound and is calculated as the percent of maximum response compared with the response of the reference standard (i.e., natural agonist, SDF-1α).

| SMILES | Emax [%] |
| --- | --- |
| CCCCCCCCCCCCCCCC(=O)N[C@@H](CCOC)C(=O)NCC(=O)N[C@@H](Cc1ccc(O)cc1)C(=O)N[C@@H](CCC(N)=O)C(=O)N[C@@H](CCCCN)C(=O)N[C@@H](CCCCN)C(=O)N[C@@H](CC(C)C)C(=O)N[C@@H](CCCNC(=N)N)C(=O)N[C@@H](CO)C(=O)N[C@@H](CCOC)C(=O)N[C@H](C(=O)N[C@@H](CC(=O)O)C(=O)N[C@@H](CCCCN)C(=O)N[C@@H](Cc1ccc(O)cc1)C(=O)N[C@@H](CCCNC(=N)N)C(=O)N[C@@H](CC(C)C)C(N)=O)[C@@H](C)O [Compound 22] (Palmitoyl-[hSer](Me)GYQKKLRS[hSer](Me)TDKYRL-NH2) | 77.7 |
| CCCCCCCCCCCCCCCC(=O)N[C@@H](COC)C(=O)NCC(=O)N[C@@H](Cc1ccc(O)cc1)C(=O)N[C@@H](CCC(N)=O)C(=O)N[C@@H](CCCCN)C(=O)N[C@@H](CCCCN)C(=O)N[C@@H](CC(C)C)C(=O)N[C@@H](CCCNC(=N)N)C(=O)N[C@@H](CO)C(=O)N[C@@H](COC)C(=O)N[C@H](C(=O)N[C@@H](CC(=O)O)C(=O)N[C@@H](CCCCN)C(=O)N[C@@H](Cc1ccc(O)cc1)C(=O)N[C@@H](CCCNC(=N)N)C(=O)N[C@@H](CC(C)C)C(N)=O)[C@@H](C)O [Compound 23] (Palmitoyl-S(Me)GYQKKLRSS(Me)TDKYRL-NH2) | 87.2 |
| C#CC[C@H](NC(=O)CCCCCCCCCCCCCCC)C(=O)NCC(=O)N[C@@H](Cc1ccc(O)cc1)C(=O)N[C@@H](CCC(N)=O)C(=O)N[C@@H](CCCCN)C(=O)N[C@@H](CCCCN)C(=O)N[C@@H](CC(C)C)C(=O)N[C@@H](CCCNC(=N)N)C(=O)N[C@@H](CO)C(=O)N[C@@H](CCSC)C(=O)N[C@H](C(=O)N[C@@H](CC(=O)O)C(=O)N[C@@H](CCCCN)C(=O)N[C@@H](Cc1ccc(O)cc1)C(=O)N[C@@H](CCCNC(=N)N)C(=O)N[C@@H](CC(C)C)C(N)=O)[C@@H](C)O [Compound 24] (Palmitoyl-[Pra]GYQKKLRSMTDKYRL-NH2; C-terminus assumed) | 76.6 |
| CCCCCCCCCCCCCCCC(=O)NCC(=O)NCC(=O)N[C@@H](Cc1ccc(O)cc1)C(=O)N[C@@H](CCC(N)=O)C(=O)N[C@@H](CCCCN)C(=O)N[C@@H](CCCCN)C(=O)N[C@@H](CC(C)C)C(=O)N[C@@H](CCCNC(=N)N)C(=O)N[C@@H](CO)C(=O)N[C@@H](C)C(=O)N[C@H](C(=O)N[C@@H](CC(=O)O)C(=O)N[C@@H](CCCCN)C(=O)N[C@@H](Cc1ccc(O)cc1)C(=O)N[C@@H](CCCNC(=N)N)C(=O)N[C@@H](CC(C)C)C(N)=O)[C@@H](C)O [Compound 25] (Palmitoyl-GGYQKKLRSATDKYRL-NH2; C-terminus assumed) | 89.4 |
| CCCCCCCCCCCCCCCC(=O)NCC(=O)NCC(=O)N[C@@H](Cc1ccc(O)cc1)C(=O)N[C@@H](CCC(N)=O)C(=O)N[C@@H](CCCCN)C(=O)N[C@@H](CCCCN)C(=O)N[C@@H](CC(C)C)C(=O)N[C@@H](CCCNC(=N)N)C(=O)N1CCC[C@@H]1C(=O)N[C@@H](C)C(=O)N[C@H](C(=O)N[C@@H](CC(=O)O)C(=O)N[C@@H](CCCCN)C(=O)N[C@@H](Cc1ccc(O)cc1)C(=O)N[C@@H](CCCNC(=N)N)C(=O)N[C@@H](CC(C)C)C(N)=O)[C@@H](C)O [Compound 27] (Palmitoyl-GGYQKKLR[dP]ATDKYRL-NH2; C-terminus assumed) | 111 |
| CCCCCCCCCCCCCCCC(=O)NCC(=O)NCC(=O)N[C@@H](Cc1ccc(O)cc1)C(=O)N[C@@H](CCC(N)=O)C(=O)N[C@@H](CCCCN)C(=O)N[C@@H](CCCCN)C(=O)N1CCC[C@@H]1C(=O)N[C@@H](CCCNC(=N)N)C(=O)N1CCC[C@@H]1C(=O)N[C@@H](C)C(=O)N[C@H](C(=O)N[C@@H](CC(=O)O)C(=O)N[C@@H](CCCCN)C(=O)N[C@@H](Cc1ccc(O)cc1)C(=O)N[C@@H](CCCNC(=N)N)C(=O)N[C@@H](CC(C)C)C(N)=O)[C@@H](C)O [Compound 28] (Palmitoyl-GGYQKK[dP]R[dP]ATDKYRL-NH2; C-terminus assumed) | 107 |
| CCCCCCCCCCCCCCCC(=O)NCC(=O)NCC(=O)N[C@@H](Cc1ccc(O)cc1)C(=O)N[C@@H](CCC(N)=O)C(=O)N[C@@H](CCCCN)C(=O)N[C@@H](CCCCN)C(=O)N[C@@H](CC(C)C)C(=O)N[C@@H](CCCNC(=N)N)C(=O)N1CCC[C@@H]1C(=O)N[C@@H](C)C(=O)N[C@H](C(=O)N[C@@H](CC(=O)O)C(=O)N[C@@H](CCCCN)C(=O)N[C@@H](Cc1ccccc1)C(=O)N[C@@H](CCCNC(=N)N)C(=O)N[C@@H](CC(C)C)C(N)=O)[C@@H](C)O [Compound 29] (Palmitoyl-GGYQKKLR[dP]ATDKFRL-NH2; C-terminus assumed) | 88.9 |
| CCCCCCCCCCCCCCCC(=O)N[C@@H](CS)C(=O)NCC(=O)N[C@@H](Cc1ccc(O)cc1)C(=O)N[C@@H](CCC(N)=O)C(=O)N[C@@H](CCCCN)C(=O)N[C@@H](CCCCN)C(=O)N[C@@H](CC(C)C)C(=O)N[C@@H](CCCNC(=N)N)C(=O)N[C@@H](CO)C(=O)N[C@@H](C)C(=O)N[C@H](C(=O)N[C@@H](CC(=O)O)C(=O)N[C@@H](CCCCN)C(=O)N[C@@H](Cc1ccc(O)cc1)C(=O)N[C@@H](CCCNC(=N)N)C(=O)N[C@@H](CC(C)C)C(N)=O)[C@@H](C)O [Compound 30] (Palmitoyl-CGYQKKLRSATDKYRL-NH2; C-terminus assumed) | 95.3 |
| CCCCCCCCCCCCOCCC(=O)NCC(=O)NCC(=O)N[C@@H](Cc1ccc(O)cc1)C(=O)N[C@@H](CCC(N)=O)C(=O)N[C@@H](CCCCN)C(=O)N[C@@H](CCCCN)C(=O)N[C@@H](CC(C)C)C(=O)N[C@@H](CCCNC(=N)N)C(=O)N[C@@H](CO)C(=O)N[C@@H](C)C(=O)N[C@H](C(=O)N[C@@H](CC(=O)O)C(=O)N[C@@H](CCCCN)C(=O)N[C@@H](Cc1ccc(O)cc1)C(=O)N[C@@H](CCCNC(=N)N)C(=O)N[C@@H](CC(C)C)C(N)=O)[C@@H](C)O [Compound 31] (X1-GGYQKKLRSATDKYRL-NH2; C-terminus assumed) | 84.2 |
| CCCCCCCCCCCCCCCC(=O)NCC(=O)NCC(=O)N[C@@H](Cc1ccc(O)cc1)C(=O)N[C@@H](CCC(N)=O)C(=O)N[C@@H](CCCCN)C(=O)N[C@@H](CCCCN)C(=O)N[C@@H](CC(C)C)C(=O)N[C@@H](CCCNC(=N)N)C(=O)N1CCC[C@@H]1C(=O)N1CCC[C@@H]1C(=O)N[C@@H](Cc1c[nH]cn1)C(=O)N[C@H](C(=O)N[C@@H](CC(=O)O)C(=O)N[C@@H](CCCCN)C(=O)N[C@@H](Cc1ccc(O)cc1)C(=O)N[C@@H](CCCNC(=N)N)C(=O)N[C@@H](CC(C)C)C(N)=O)[C@@H](C)O [Compound 32] (Palmitoyl-GGYQKKLR[dP][dP]HTDKYRL-NH2; C-terminus assumed) | 91.1 |
| CCCCCCCCCCCCCCCC(=O)NCC(=O)NCC(=O)N[C@@H](Cc1ccc(O)cc1)C(=O)N[C@@H](CCC(N)=O)C(=O)N[C@@H](CCCCN)C(=O)N[C@@H](CCCCN)C(=O)N[C@@H](CC(C)C)C(=O)N[C@@H](CCCNC(=N)N)C(=O)N1CCC[C@@H]1C(=O)N[C@@H](Cc1c[nH]c2ccccc12)C(=O)N[C@H](C(=O)N[C@@H](CC(=O)O)C(=O)N[C@@H](CCCCN)C(=O)N[C@@H](Cc1ccc(O)cc1)C(=O)N[C@@H](CCCNC(=N)N)C(=O)N[C@@H](CC(C)C)C(N)=O)[C@@H](C)O [Compound 33] (Palmitoyl-GGYQKKLR[dP]WTDKYRL-NH2; C-terminus assumed) | 93 |
| CCCCCCCCCCCCCCCC(=O)NCC(=O)NCC(=O)N[C@@H](Cc1ccc(O)cc1)C(=O)N[C@@H](CCC(N)=O)C(=O)N[C@@H](CCCCN)C(=O)N[C@@H](CCCCN)C(=O)N[C@@H](CC(C)C)C(=O)N[C@@H](CCCNC(=N)N)C(=O)N1CCC[C@@H]1C(=O)N[C@@H](CN)C(=O)N[C@H](C(=O)N[C@@H](CC(=O)O)C(=O)N[C@@H](CCCCN)C(=O)N[C@@H](Cc1ccc(O)cc1)C(=O)N[C@@H](CCCNC(=N)N)C(=O)N[C@@H](CC(C)C)C(N)=O)[C@@H](C)O [Compound 34] (Palmitoyl-GGYQKKLR[dP][Dap]TDKYRL-NH2; C-terminus assumed) | 103 |
| CCCCCCCCCCCCCCCC(=O)NCC(=O)NCC(=O)N[C@@H](Cc1ccc(O)cc1)C(=O)N[C@@H](CCC(N)=O)C(=O)N[C@@H](CCCCN)C(=O)N[C@@H](CCCCN)C(=O)N[C@@H](CC(C)C)C(=O)N[C@@H](CCCNC(=N)N)C(=O)N1C[C@H](O)C[C@H]1C(=O)N[C@@H](Cc1c[nH]cn1)C(=O)N[C@H](C(=O)N[C@@H](CC(=O)O)C(=O)N[C@@H](CCCCN)C(=O)N[C@@H](Cc1ccc(O)cc1)C(=O)N[C@@H](CCCNC(=N)N)C(=O)N[C@@H](CC(C)C)C(N)=O)[C@@H](C)O [Compound 35] (Palmitoyl-GGYQKKLR[Hyp]HTDKYRL-NH2; C-terminus assumed) | 89.4 |
| CCCCCCCCCCCCCCCC(=O)NCC(=O)NCC(=O)N[C@@H](Cc1ccc(O)cc1)C(=O)N[C@@H](CCC(N)=O)C(=O)N[C@@H](CCCCN)C(=O)N[C@@H](CCCCN)C(=O)N[C@@H](CC(C)C)C(=O)N[C@@H](CCCNC(=N)N)C(=O)N1CCC[C@@H]1C(=O)N1C[C@H](O)C[C@H]1C(=O)N[C@H](C(=O)N[C@@H](CC(=O)O)C(=O)N[C@@H](CCCCN)C(=O)N[C@@H](Cc1ccc(O)cc1)C(=O)N[C@@H](CCCNC(=N)N)C(=O)N[C@@H](CC(C)C)C(N)=O)[C@@H](C)O [Compound 36] (Palmitoyl-GGYQKKLR[dP][Hyp]TDKYRL-NH2; C-terminus assumed) | 55.2 |
